Patent US7326689B2, “Pseudomycins useful against plant diseases” (Eli Lilly and Company, priority 2000, dated 2008)
Where “and” joins values, the source holds several entries; their conditions need not be identical. Equal values may be shown once.

Legend:
Assay in all cases: Antifungal growth assay in potato dextrose broth, 24-well
Type in all cases: cell-based
[1] = test system: Drechslera portulacae; conditions: 3x assays
Protocol: (§1) Fungi to be tested were propagated on potato dextrose agar (PDA) plates at room temperature. Stock solutions of pseudomycins and depsipeptide were suspended in dimethylsulfoxide (DMSO) (Sigma) at 5 mg/ml and stored at −20C. Serial dilutions of compounds were done the day of the experiment. All serial dilutions were made in DMSO. […] These are noted in the raw data section.
(§2) Assays were performed in 24-well cell culture clusters (Costar 3524), with 990 ul potato dextrose broth (PDB, Difco) and 10 ul of the compound to be tested in each well. Initial concentrations tested were 50-1.56 ug/ml (final concentration of pseudomycin). Actual concentrations of pseudomycins tested were 50, 25, 12.5, 6.25, 3.12 and 1.56 ug/ml. Each well was inoculated with the appropriate fungus. Unless noted, the fungal inoculum consisted of an ˜4 mm^2 piece of PDA with fungal mycelium. The exceptions were as follows. Ustilago maydis: this fungus grows much like a yeast on PDA, and cells were scraped from the PDA stock plate, resuspended in PDB and 10 ul inoculum added to each well. Monilinia sp.: this fungal mycelium grows as a very loose sheet on top of PDA and would not adhere to agar blocks. Fungal mycelium was ground with a metal rod in 500 ul PDB and 10 ul inoculum was added to each well. Mycosphaeella fijiensis, Septoria passerinii, Septoria triticii: these fungi all grow very slowly and the results were difficult to score if a small piece of agar with fungal mycelium on it was used as an inoculum. For these fungi, the mycelium was ground with a metal rod in 500 ul PDB and 10 ul inoculum was added to each well.
(§3) Wells were scored for fungal growth at two days and five days. Some slow growing fungi were scored at later days for growth because assessment was not possible at two or five days. Growth was scored by comparison to a control consisting of fungus inoculated into 990 ul potato dextrose broth and 10 ul of DMSO (Dimethylsulfoxide). An additional control consisting of fungal inoculum in PDB only was performed to ensure that the DMSO was not inhibitory to fungal growth.
(§4) For assays that were repeated, new stock solutions were made from a second shipment of pseudomycins. Note that pseudomycin B′ and depsipeptide stock solutions were remade from first shipment materials because these were not included in the second shipment. […] Actual concentrations of pseudomycins tested were 2, 1, 0.5, 0.25, 0.125 and 0.0625 ug/ml. A-PO4 and A-FB=pseudomycin A phosphate salt and free base respectively.
(§5) Table 2: Two day results—concentration indicated is lowest level of compound (ug /ml) that results is no growth. NI, no inhibition; p (partial), at least 50% inhibited; -, not determined. If number of assays was greater than one, number of assays performed on the fungus is noted in parentheses. For several slow-growing fungi, days elapsed before observation (if different than two) are noted.
(§6) Table 3: Five day results—concentration indicated is lowest level of compound (ug /ml) that results in no growth. NI, no inhibition; p (partial), at least 50% inhibited; -, not performed on the fungus is noted in parentheses. For several slow-growing fungi, days elapsed before observation (if different than five) are noted.

[2] = test system: Geotrichim candidum; conditions: 3x assays
Protocol: as §1, §2, §3, §4, §5, §6

[3] = test system: Monilinia sp.; conditions: 2x assays
Protocol: as §1, §2, §3, §4, §5, §6

[4] = test system: Mycosphaeella fijiensis (8088/88); conditions: 3x assays
Protocol: as §1, §2, §3, §4, §5, §6

[5] = test system: Mycosphaeella fijiensis (Sigatoka); conditions: 3x assays
Protocol: as §1, §2, §3, §4, §5, §6

[6] = test system: Penicillium roqueforti; conditions: 3x assays
Protocol: as §1, §2, §3, §4, §5, §6

[7] = test system: Rhizoctonia solani; conditions: 2x assays
Protocol: as §1, §2, §3, §4, §5, §6

[8] = test system: Septoria passerinii; conditions: 3x assays
Protocol: as §1, §2, §3, §4, §5, §6

[9] = test system: Septoria tritici; conditions: 3x assays
Protocol: as §1, §2, §3, §4, §5, §6

[10] = test system: Ustilago maydis; conditions: 3x assays
Protocol: as §1, §2, §3, §4, §5, §6

[11] = test system: Alternaria helianthi; parameters: key: NI, no inhibition; p (partial), at least 50% inhibited; conditions: 2x assays
How it was run: (§7)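 Compounds were serially diluted in DMSO and tested at final concentrations of 50–1.56 ug/ml (2–0.0625 ug/ml in repeat runs) in potato dextrose broth inoculated with a ~4 mm^2 PDA mycelium plug. M. fijiensis received ground mycelium suspended in PDB instead. The value is the lowest concentration with no growth at 2 and 5 days.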

[12] = test system: Bipolaris sorokiniana; parameters: key: NI, no inhibition; p (partial), at least 50% inhibited
How it was run: as §7

[13] = test system: Drechslera teres; parameters: key: NI, no inhibition; p (partial), at least 50% inhibited
How it was run: as §7

[14] = test system: Phyllosticta maydis; parameters: key: NI, no inhibition; p (partial), at least 50% inhibited
How it was run: as §7

[15] = test system: Phytophthora cinnemani; parameters: key: NI, no inhibition; p (partial), at least 50% inhibited
How it was run: as §7

[16] = Table 3 (five day results), observed at 9 day
[17] = Table 2 (two day results), observed at 7 day
[18] = Table 3 (five day results), observed at 21 days

Row | Substance | lowest level of compound that results in no growth [1, 16] | lowest level of compound that results in no growth ([1]; two day results) [µg/mL] | lowest level of compound that results in no growth ([2]; five day results) [µg/mL] | lowest level of compound that results in no growth ([2]; two day results) [µg/mL] | lowest level of compound that results in no growth ([3]; five day results) [µg/mL] | lowest level of compound that results in no growth ([3]; two day results) [µg/mL] | lowest level of compound that results in no growth [4, 17] [µg/mL] | lowest level of compound that results in no growth [4, 18] [µg/mL] | lowest level of compound that results in no growth [5, 17] [µg/mL] | lowest level of compound that results in no growth [5, 18] [µg/mL] | lowest level of compound that results in no growth ([6]; five day results) | lowest level of compound that results in no growth ([6]; two day results) [µg/mL] | lowest level of compound that results in no growth ([7]; five day results) | lowest level of compound that results in no growth ([7]; two day results) | lowest level of compound that results in no growth ([8]; five day results) | lowest level of compound that results in no growth ([8]; two day results) [µg/mL] | lowest level of compound that results in no growth ([9]; five day results) [µg/mL] | lowest level of compound that results in no growth ([9]; two day results) [µg/mL] | lowest level of compound that results in no growth ([10]; five day results) [µg/mL] | lowest level of compound that results in no growth ([10]; two day results) [µg/mL] | further results
1 | Pseudomycin C | 0.0625 µg/mL and 0.06 µg/mL | 0.06 | 25 | 3.12 | 12.5 | 6.25 | 0.125 | 0.25 | 1.56 | 1.56 | 12.5 µg/mL | 1.56 | p at 50 | 25 µg/mL | 0.0625 µg/mL and 0.06 µg/mL | 0.06 | 0.25 | 0.125 | 0.25 | 0.25 | lowest level of compound that results in no growth ([11]; five day results): NI; lowest level of compound that results in no growth ([11]; two day results): p at 50; lowest level of compound that results in no growth ([12]; five day results): NI; lowest level of compound that results in no growth ([12]; two day results): NI; lowest level of compound that results in no growth ([13]; five day results): NI; lowest level of compound that results in no growth ([13]; two day results): NI; lowest level of compound that results in no growth ([14]; five day results): NI; lowest level of compound that results in no growth ([14]; two day results): p at 50; lowest level of compound that results in no growth ([15]; five day results): NI; lowest level of compound that results in no growth ([15]; two day results): NI
2 | Pseudomycin C′ | 0.5 µg/mL | 0.05 | 6.25 | 1.56 | 6.25 | 3.12 | 0.125 | 0.25 | 1.56 | 1.56 | p at 50 | 1.56 | p at 50 | p at 50 | 0.0625 µg/mL and 0.06 µg/mL | 0.06 | 0.25 | 0.125 | 0.25 | 0.25 | lowest level of compound that results in no growth ([11]; five day results): NI; lowest level of compound that results in no growth ([11]; two day results): p at 50; lowest level of compound that results in no growth ([12]; five day results): NI; lowest level of compound that results in no growth ([12]; two day results): NI; lowest level of compound that results in no growth ([13]; five day results): NI; lowest level of compound that results in no growth ([13]; two day results): NI; lowest level of compound that results in no growth ([14]; five day results): NI; lowest level of compound that results in no growth ([14]; two day results): p at 50; lowest level of compound that results in no growth ([15]; five day results): NI; lowest level of compound that results in no growth ([15]; two day results): NI
3 | pseudomycin A-FB | 0.25 µg/mL | 0.25 | 6.25 | 3.12 | 12.5 | 6.25 | 0.25 | 0.25 | 0.5 | 1 | 3.12 µg/mL | 1 | 50 µg/mL | 6.25 µg/mL | 0.06 µg/mL | 0.06 | 0.25 | 0.25 | 1 | 1 | lowest level of compound that results in no growth ([8]; five day results, listed as pseudomycin A (free base)): 0.0625 µg/mL; lowest level of compound that results in no growth ([11]; five day results): 25 µg/mL; lowest level of compound that results in no growth ([11]; two day results): 25 µg/mL; lowest level of compound that results in no growth ([12]; five day results): NI; lowest level of compound that results in no growth ([12]; two day results): NI; lowest level of compound that results in no growth ([13]; five day results): NI; lowest level of compound that results in no growth ([13]; two day results): NI; lowest level of compound that results in no growth ([14]; five day results): NI; lowest level of compound that results in no growth ([14]; two day results): p at 50; lowest level of compound that results in no growth ([15]; five day results): NI; lowest level of compound that results in no growth ([15]; two day results): NI
